Earlier results as cited in US5385929A, “[(Hydroxyphenylamino) carbonyl] pyrroles” (Warner-Lambert Company, priority 1994, dated 1995).

Test system: biosynthesis of cholesterol
Conditions: qualitative; described in U.S. Pat. No. 5,273,995

In the case of `CC(C)c1c(C(=O)Nc2ccccc2)c(-c2ccccc2)c(-c2ccc(F)cc2)n1CC[C@@H](O)C[C@@H](O)CC(=O)O` [Compound of Patent 5,273,995 (open form), [R-(R*,R*)]-2-(4-fluorophenyl)-β,δ-dihydroxy-5-(1-methylethyl)-3-phenyl-4-[(phenylamino)carbonyl]-1H-pyrrole-1-heptanoic acid], the “activity as a hypocholesterolemic agent” value is listed as “particularly active as a hypocholesterolemic agent”.
